Tests used:
[1] = system: rat; test: Increase in rate of stomach emptying (M1 active); type: in vivo; conditions: PO
Excerpt: (§1) Thus, the receptor binding selectivity of (S)-3-ethyl-4-[(1-methyl-1H-imidazol-5-yl)methyl]-2-oxazolidinone translates into pharmacologic specificity in the whole animal with M1 actions (stomach emptying) predominating over M2 actions (enhanced intestinal motility). […] Additionally, as shown in Table I in the central nervous system the compound increases neocortical arousal as measured by quantitative electroencephalography at doses below those required to increase local cortical blood flow in rats.

[2] = system: awake unanesthetized rat; test: Heart rate in the awake unanesthetized rat; type: in vivo; conditions: increase = M1 response, decrease = M2 response
Excerpt: as §1

[3] = Oral availability and duration of action; conditions: in vivo
[4] = system: Male Long-Evans rats; test: Neocortical arousal by quantitative electroencephalography (QEEG); type: in vivo; conditions: rat, 10.0, 32.0 and 100.0 mg/kg tested
Excerpt: The methodology for determining neocortical arousal in rats by quantitative electroencephalography (QEEG) is as follows:
Male Long-Evans rats weighing 350 to 500 g were surgically implanted with stainless steel electrodes screwed into the skull surface overlying the frontal and occipital cortex. Electrodes were secured to a plastic connector (Plastic Products Model MS-363) which was permanently attached to the skull surface with dental acrylic. Animals were given one week to recover from surgery before testing.
After recovery from surgery, QEEG was measured Briefly, animals were placed into sound attenuating chambers during the light cycles of the rats diurnal cycle. Animals were allowed two hours to habituate to these environments. Thereafter, EEG was recorded continuously for ten minutes before and two hours after drug administration. Every other one-second sample of EEG was converted from the time to the frequency domain using a fast fourier transformation (FFT). […] Mean power within the 0 to 4 (delta), 5 to 8 (theta), 9 to 15 (alpha), 16 to 25 (beta) Hz bands was calculated separately for each bandwidth. Total power within all bandwidths also was calculated. […]
Data from each bandwidth and total power were analyzed separately using nonparametric ranked analysis of variance (Kruskals-Wallis rank transformed analysis with repeated measures). […]

[5] = system: central muscarinic antagonist and agonist binding sites, rat cerebral cortex tissue; test: Receptor [3H]quinuclidinyl benzilate (RQNB) / [3H]cis-methyldioxalane (RCMD) binding, ratio of IC50 values; conditions: agonists ratio >=100, antagonists near 1, partial agonists between 1 and 100
Description: The biological activity of (S)-3-ethyl-4-[(1-methyl-1H-imidazol-5-yl)methyl]-2-oxazolidinone or a pharmaceutically acceptable salt thereof as an agent for the treatment of the symptoms of cognitive decline in an elderly patient including Alzheimer's disease was evaluated using a number of tests. The activity of the aforementioned compound or pharmaceutically acceptable salt thereof as a central muscarinic binding site agonist and antagonist was measured. Thus, in the Receptor [^3 H]Quinuclidinyl Benzilate Binding Assay (RQNB), described more fully by Watson, M., et al, Journal of Pharmacology and Experimental Therapeutics, 237, pages 411-418 (1986), rat cerebral cortex tissue is treated with radiolabeled quinuclidinyl benzilate, a known muscarinic binding site antagonist. The concentration of test compound required to inhibit 50% of the binding of this muscarinic antagonist is then determined. This procedure allows a determination of the affinity of the test compound for the central muscarinic antagonist site. […] The concentration of test compound required to inhibit 50% of the binding of this muscarinic agonist is then determined. […]

[6] = system: M1 receptors / M2 receptors; test: M1/M2 receptor binding: transformed cells possessing only M1 receptors and heart tissue (M2 receptors)
Excerpt: On the basis of molecular biology techniques, five subtypes of muscarinic receptors have been identified. For an agent useful in the treatment of cognitive decline in a patient, the relevant receptors are M1 since they are predominantly localized in brain areas associated with memory and learning (cortex and hippocampus). For comparison, M2 receptors are predominantly localized in peripheral tissues (e.g. the heart). […] The ratio of M1/M2 is shown in Table I. (S)-3-Ethyl-4-[(1-methyl-1H-imidazol-5-yl)methyl]-2-oxazolidinone is 3-fold selective for M1receptors over M2 receptors

[7] = system: rat; test: Increase in smooth muscle motility of the intestines (M2 active); type: in vivo; conditions: PO
Excerpt: as §1

CCN1C(=O)OC[C@@H]1Cc1cncn1C [(S)-3-ethyl-4-[(1-methyl-1H-imidazol-5-yl)methyl]-2-oxazolidinone]
ED50 [1]: 1.6 mg/kg | effect on heart rate [2]: increases (an M1 response) rather than decreases (an M2 response) heart rate | duration of action [3]: reasonable duration of action | oral availability ([3]; po): good oral availability | ELECTROENCEPHALOGRAPHY (ACTIVE DOSE RANGE, mg/kg, PO) [4]: 10-100 mg/kg | RQNB/RCMD (ratio of IC50 values, muscarinic antagonist/agonist binding) [5]: 214 | selectivity for M1 receptors over M2 receptors ([6]; receptor binding): 3 fold | M1/M2 (RECEPTOR BINDING) ([6]; transformed cells with only M1 receptors vs heart tissue (M2)): 3.3 | ED50 [7]: 13.1 mg/kg

Source: patent publication US4977172A, “Method of treating the symptoms of cognitive decline in an elderly patient employing (S)-3-ethyl-4-[(1-methyl-1H-imidazol-5-yl)-methyl]-2-oxazolidinone” (Warner-Lambert Company, priority 1989, dated 1990)
